≈ marks a conversion by molar mass, not a printed value. Blank lines part the entries; values can stand above or below the molecule they belong to.
Key:
[1] = Compression test of Form A; assay type: physicochemical; conditions: 2000-psi pressure for about 1 minute
From the text: The stability of Form A was further characterized by compression test and form transfer experiments.

[2] = Slurry experiments of Form H in water/DMSO (form map)
Experimental: The effect of temperature (22° C.-70° C.) and water compositions in DMSO (50%-88%) on the stability of Form A and Form H of Compound 1 is mapped out in Table 6 and FIG. 45.

[3] = Water uptake on storage; assay type: physicochemical
[4] = physchem; conditions: 25 °C, thermodynamic from solid
[5] = Moisture sorption/desorption (hygroscopicity) by DVS; assay type: physicochemical
Experimental: Hygroscopicity was determined on a Surface Measurement Systems DVS. Typically a sample size of 5-20 mg was loaded into the DVS instrument sample pan and the sample was analyzed on a DVS automated sorption analyzer at room temperature. The relative humidity was increased from 0% to 90% RH at 10% RH step, then at 95% RH. The relative humidity was then decreased in a similar manner to accomplish a full adsorption/desorption cycle.
The moisture sorption/desorption behavior of Form A was determined by DVS.

[6] = Form conversion experiments: slurry in water; assay type: physicochemical; conditions: RT, 5 days
Experimental: (§1) Further form conversion experiments were performed to determine interconversion among solid forms. The solvated forms were isothermally held at 150° C. for 5 min and the resulted solids were consistent with Form A. All aqueous slurries also afforded Form A.

[7] = Form conversion experiments: heating of solvated forms; assay type: physicochemical
Experimental: as §1

solid form after compression (XRPD) [1]: still Form A | form stability in water/DMSO ([2]; 22° C., 70-88% water in DMSO): remained as Form A | thermodynamic stability in water/DMSO ([2]; water rich water/DMSO mixture (>70%), 22° C.-70° C.): thermodynamically stable form | water uptake at room temperature ([3]; room temperature): relatively slow water uptake | water absorbed after storage ([3]; storage at 40° C./75% RH for 7 months): up to 3% | solubility at 24 h ([4]; pH 4.5, aqueous buffer): 289 µg/mL (≈ 899 µM) | solubility at 24 h [4]: 38 µg/mL (≈ 118 µM) | XRPD diffractogram after adsorption/desorption cycles ([5]; after DVS cycle 0-95% RH): no change | DVS water uptake ([5]; at 80% RH (Table 5)): 1.0 wt % at | steep mass change (DVS) ([5]; between 0 and 10% RH, room temperature): 1.3% | total mass change (DVS) ([5]; between 0 and 95% RH, room temperature): 2.3% | DVS water uptake ([5]; from 0 to 95% RH (Table 5)): 1.2 wt % water
SMILES: C[C@@H]1CC[C@@H](Nc2nc(NC(C)(C)C)ncc2C(N)=O)C[C@H]1O [Form A, 2-(tert-butylamino)-4-((1R,3R,4R)-3-hydroxy-4-methylcyclohexylamino)-pyrimidine-5-carboxamide]

XRPD Result (solid form after slurry in water) [6]: Form A | solid form after heating above the desolvation temperature ([7]; form transfer experiment, heating above the desolvation temperature): Form A
SMILES: C[C@@H]1CC[C@@H](Nc2nc(NC(C)(C)C)ncc2C(N)=O)C[C@H]1O [Form B, 2-(tert-butylamino)-4-((1R,3R,4R)-3-hydroxy-4-methylcyclohexylamino)-pyrimidine-5-carboxamide]

XRPD Result (solid form after heating) ([7]; Heating, isothermal hold at 150° C. for 5 min): Form A
SMILES: C[C@@H]1CC[C@@H](Nc2nc(NC(C)(C)C)ncc2C(N)=O)C[C@H]1O [Form D, 2-(tert-butylamino)-4-((1R,3R,4R)-3-hydroxy-4-methylcyclohexylamino)-pyrimidine-5-carboxamide]

Stable Polymorph Form after slurry of Form H ([2]; 50% water in DMSO, 22° C.): A/H | Stable Polymorph Form after slurry of Form H ([2]; 60% water in DMSO, 40° C.): A/H
SMILES: C[C@@H]1CC[C@@H](Nc2nc(NC(C)(C)C)ncc2C(N)=O)C[C@H]1O [Form H, 2-(tert-butylamino)-4-((1R,3R,4R)-3-hydroxy-4-methylcyclohexylamino)-pyrimidine-5-carboxamide]
